Like-named read-outs stand apart in the source and are kept apart here. Values belong to the compound of their own block, whether it stands above or below them.
Key:
[1] = Unbound fraction in plasma (mouse PK table footnote); type: in vitro ADME
[2] = In vivo pharmacokinetic time profile in rats (plasma and brain); settings: rat; for Cmax / half-life / Kp: male, Sprague Dawley; for Cmax / half-life: plasma; for Cmax: vehicle 10% HP-betaCD; for half-life: read-out: T½ (converted); for Kp: brain, read-out: measured brain/plasma ratio
Procedure: Male Sprague Dawley rats or male C57 mice from SLAC Laboratory Animal Co. Ltd., Shanghai, China or SIPPR/BK Laboratory Animal Co. Ltd., Shanghai, China were used for pharmacokinetic studies. Animals were group housed during acclimation and individually housed during in-life. The animal room environment was controlled (conditions: temperature 20 to 26° C., relative humidity 30 to 70%, 12 hours artificial light and 12 hours dark) and all animals have access to Certified Rodent Diet (Beijing KEAO XIELI Feed Co., Ltd. Beijing, P.R. China.) ad libitum. Animals were deprived of food overnight prior to dosing and fed approximately 4 hours post-dosing. Water was autoclaved before provided to the animals ad libitum.
For oral dosing, the dose formulation was administered via oral gavage.
Animals were anesthetized via isoflurane. At terminal time point, about 200 μL blood was collected from cardiac puncture or abdominal vein. All blood samples were transferred into microcentrifuge tubes containing 5 μL of K2EDTA (0.5 M) as anti-coagulant and placed on wet ice until processed for plasma by centrifugation (3,000 rpm for 5 minutes at 2 to 8° C.) within half an hour of collection and kept at −70±10° C. until LC/MSMS analysis
After blood collection, brain was harvested and washed twice with cold deionized water, and blotted on filter paper, weighted and frozen until processed. Brain samples were thawed and homogenized with 4-fold of cold water using Covaris (peak power 450.0, Duty Factor 20.0, Cycles/Burst 200). for 3 min, vortex for 10 second every 1 min. Samples were further stored at −79° C. (dilution factor=5) until bioanalysis

hNav1.1 = hNav1.1 (Homo sapiens, UniProt P35498); experiment: Off-target Nav1.1 electrophysiology (Qpatch), multiple state readouts; type: cell-based; settings: resting, use-dependent and inactivated state readouts, up to 30 μM; for EC50: activation; for IC50: inhibition
Procedure: The activity of selected compound examples at three key ion channel off targets was measured, namely Nav1.1, Kv1.1/1.2 and Kv7.2/7.3.
The voltage gated sodium channel, Nav1.1, is known to have state-dependent pharmacology, therefore, compound examples were tested for effects on inhibition or activation at the resting state channel, a use-dependent readout, and an inactivated state readout by electrophysiology, at concentrations up to 30 μM.

[3] = 3 mg/mg, SC administration, dose 3 (mg/mg [sic])
[4] = 30 mg/mg, SC administration, dose 30 (mg/mg [sic])
[5] = PO administration, dose 3 (mg/mg)
[6] = PO administration, dose 30 (mg/mg)
[7] = SC administration, dose 3 (mg/mg)
[8] = SC administration, dose 10 (mg/mg)

fraction unbound [1]: 0.08
Cmax [2, 3]: 1100 ng/mL
half-life [2, 3]: 18 min
Cmax [2, 4]: 7620 ng/mL
half-life [2, 4]: 24 min
Kp ([2]; subcutaneous): 0.25
Estimated unbound brain Cmax ([2]; SC, dose 3 (mg/mg [sic]), based on brain/plasma ratio 0.25 and unbound fraction in brain 12%): 95 nM
Unbound plasma, Cmax ([2]; SC, dose 3 (mg/mg [sic]), unbound fraction in plasma 12%): 380 nM
Estimated unbound brain Cmax ([2]; SC, dose 30 (mg/mg [sic]), based on brain/plasma ratio 0.25 and unbound fraction in brain 12%): 663 nM
Unbound plasma, Cmax ([2]; SC, dose 30 (mg/mg [sic]), unbound fraction in plasma 12%): 2650 nM
EC50 (hNav1.1): > 30 µM
IC50 (hNav1.1): > 30 µM
Compound: Cc1ccc(S(=O)(=O)n2ccc(C(=O)NCc3ncco3)c2)cc1 [Compound 86, 1-(4-methylbenzene-1-sulfonyl)-N-[(1,3-oxazol-2-yl)methyl]-1H-pyrrole-3-carboxamide]

fraction unbound [1]: 0.1
Cmax [2, 5]: 627 ng/mL
half-life [2, 5]: 120 min
Cmax [2, 6]: 3940 ng/mL
half-life [2, 6]: 66 min
Cmax [2, 7]: 427 ng/mL
half-life [2, 7]: 48 min
Cmax [2, 8]: 1370 ng/mL
half-life [2, 8]: 42 min
Kp [2]: 0.5
Estimated unbound brain Cmax ([2]; PO, dose 3 (mg/mg), based on brain/plasma ratio 0.5 and unbound fraction in brain 8%): 65 nM
Unbound plasma, Cmax ([2]; PO, dose 3 (mg/mg), unbound fraction in plasma 10%): 160 nM
Estimated unbound brain Cmax ([2]; PO, dose 30 (mg/mg), based on brain/plasma ratio 0.5 and unbound fraction in brain 8%): 406 nM
Unbound plasma, Cmax ([2]; PO, dose 30 (mg/mg), unbound fraction in plasma 10%): 1015 nM
Estimated unbound brain Cmax ([2]; SC, dose 3 (mg/mg), based on brain/plasma ratio 0.5 and unbound fraction in brain 8%): 44 nM
Unbound plasma, Cmax ([2]; SC, dose 3 (mg/mg), unbound fraction in plasma 10%): 110 nM
Estimated unbound brain Cmax ([2]; SC, dose 10 (mg/mg), based on brain/plasma ratio 0.5 and unbound fraction in brain 8%): 142 nM
Unbound plasma, Cmax ([2]; SC, dose 10 (mg/mg), unbound fraction in plasma 10%): 353 nM
EC50 (hNav1.1): > 30 µM
IC50 (hNav1.1): > 30 µM
Compound: Cc1cnc(CNC(=O)c2ccn(S(=O)(=O)c3ccc(F)cc3C)c2)cn1 [Compound 90, 1-(4-fluoro-2-methylbenzene-1-sulfonyl)-N-[(5-methylpyrazin-2-yl)methyl]-1H-pyrrole-3-carboxamide]

Reference: patent publication US20200131156A1, “ARYLSULFONYLPYROLECARBOXAMIDE DERIVATIVES AS Kv3 POTASSIUM CHANNEL ACTIVATORS” (H. Lundbeck A/S, priority 2018, published 2020)
